We go through 26 molecules from patent US20060194837A1, “Tetrahydroisoquinoline compounds” (priority 2004, published 2006).

A word on the Ki: it is the equilibrium dissociation constant of an inhibitor or competing ligand from its target.

One assay concerns the target T1, Rat SERT (Rattus norvegicus, UniProt P31652).
T1 construct: A rat brain without cerebellum (Zivic Laboratories, Inc.—Pittsburgh, Pa.) was homogenized; tissue Zivic Laboratories, Inc; host or cells: rat brain without cerebellum, membranes
As to the kind of experiment: Rat brain SERT binding ([3H]-citalopram displacement). As to conditions: rat brain membranes without cerebellum, 0.6 nM [3H]-citalopram, 60 min at 25° C.; read-out: Rat SERT Ki. As for the experimental part:
The supernatant was removed and re-centrifuged at 15,000 rpm for 30 min. […] Membranes were incubated with 0.6 nM [^3H]-Citalopram plus/minus test compounds for 60 min at 25° C. and harvested by rapid filtration over GF/C glass fiber filters (pretreated with 0.3% polyethylenimine) followed by four washes with ice-cold buffer.

The target of a further assay is T2, human H3 receptor (Homo sapiens, UniProt Q9Y5N1).
T2 construct: expressed in transfected cells
Kind of assay: H3 receptor binding (N-[3H]-α-methylhistamine displacement). As to conditions: membranes of SK-N-MC cells expressing cloned human H3 receptor, 0.8 nM N-[3H]-α-methylhistamine, 60 min at 25° C. As for the experimental part:
Briefly, cell pellets from SK-N-MC cells expressing the human H3 receptor were homogenized in 50 mM Tris-HCl/5 mM EDTA and re-centrifuged at 30,000 g for 30 min. Pellets were re-homogenized in 50 mM Tris/6 mM EDTA (pH 7.4). Membranes were incubated with 0.8 nM N-[^3H]-α-methylhistamine plus/minus test compounds for 60 min at 25° C. and harvested by rapid filtration over GF/C glass fiber filters (pretreated with 0.3% polyethylenimine) followed by four washes with ice-cold buffer. Nonspecific binding was defined in the presence of 10 μM histamine.

Molecules are shown by their SMILES.

T1 sequence (P31652 whole entry): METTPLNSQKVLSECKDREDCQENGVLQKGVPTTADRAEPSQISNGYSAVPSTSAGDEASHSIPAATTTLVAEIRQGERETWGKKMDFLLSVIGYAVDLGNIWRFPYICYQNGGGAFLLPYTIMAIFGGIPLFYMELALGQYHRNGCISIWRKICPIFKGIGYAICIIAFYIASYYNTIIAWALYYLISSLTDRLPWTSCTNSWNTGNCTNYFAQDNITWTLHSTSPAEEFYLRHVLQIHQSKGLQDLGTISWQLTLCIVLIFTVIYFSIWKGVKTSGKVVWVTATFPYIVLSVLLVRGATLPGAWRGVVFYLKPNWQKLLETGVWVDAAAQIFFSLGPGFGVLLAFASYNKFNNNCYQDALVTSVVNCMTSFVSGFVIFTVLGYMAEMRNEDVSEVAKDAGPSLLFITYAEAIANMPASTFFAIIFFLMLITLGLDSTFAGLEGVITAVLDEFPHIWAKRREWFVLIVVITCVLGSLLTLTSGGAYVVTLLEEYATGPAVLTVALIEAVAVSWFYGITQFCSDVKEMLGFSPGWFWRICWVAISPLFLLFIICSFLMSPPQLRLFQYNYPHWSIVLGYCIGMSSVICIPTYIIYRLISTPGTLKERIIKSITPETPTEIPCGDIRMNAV
T2 sequence (Q9Y5N1 whole entry): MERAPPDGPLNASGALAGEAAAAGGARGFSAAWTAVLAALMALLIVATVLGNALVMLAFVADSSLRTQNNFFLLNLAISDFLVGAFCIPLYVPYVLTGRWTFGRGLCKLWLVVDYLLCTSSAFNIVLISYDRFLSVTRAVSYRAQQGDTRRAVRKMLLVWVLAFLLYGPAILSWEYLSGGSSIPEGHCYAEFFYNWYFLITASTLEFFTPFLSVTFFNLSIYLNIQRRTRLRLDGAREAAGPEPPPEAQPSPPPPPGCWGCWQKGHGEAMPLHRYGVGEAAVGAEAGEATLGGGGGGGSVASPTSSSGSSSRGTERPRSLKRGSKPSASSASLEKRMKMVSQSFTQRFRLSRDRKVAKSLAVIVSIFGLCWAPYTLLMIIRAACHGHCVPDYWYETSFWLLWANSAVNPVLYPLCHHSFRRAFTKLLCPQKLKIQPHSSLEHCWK

With `COc1ccc(C2CN(C)Cc3cc(OCCC4CCCN4C)ccc32)cc1` (mixture of isomers) [Example 240, 4-(4-Methoxy-phenyl)-2-methyl-7-[2-(1-methyl-pyrrolidin-2-yl)-ethoxy]-1,2,3,4-tetrahydro-isoquinoline], the Ki at Rat SERT was found to be 3 nM; on human H3 receptor, 4 nM. With `COc1ccc(C2CN(C)Cc3cc(OCC4CN(C)CCO4)ccc32)cc1` (mixture of isomers) [Example 251, 4-(4-Methoxy-phenyl)-2-methyl-7-(4-methyl-morpholin-2-ylmethoxy)-1,2,3,4-tetrahydro-isoquinoline], the Ki amounted to 12 nM on Rat SERT and 67 nM at human H3 receptor. As for `COc1ccc(C2CN(C)Cc3cc(OCC4CN(CCF)CCO4)ccc32)cc1` (mixture of isomers) [Example 258, 7-[4-(2-Fluoro-ethyl)-morpholin-2-ylmethoxy]-4-(4-methoxy-phenyl)-2-methyl-1,2,3,4-tetrahydro-isoquinoline], the Ki at Rat SERT is 8 nM; at human H3 receptor it was 32 nM. Regarding `COc1ccc(C2CN(C)Cc3cc(OC[C@H]4CN(C5CC5)CCO4)ccc32)cc1` (mixture of isomers) [Example 261, 7-(4-Cyclopropyl-morpholin-2R-ylmethoxy)-4-(4-methoxy-phenyl)-2-methyl-1,2,3,4-tetrahydro-isoquinoline], the Ki on Rat SERT was determined as 32 nM; at human H3 receptor it was 62 nM. For `CSc1ccc(C2CN(C)Cc3cc(OCC4CNCCO4)ccc32)cc1` (mixture of isomers) [Example 264, 2-Methyl-4-(4-methylsulfanyl-phenyl)-7-(morpholin-2-ylmethoxy)-1,2,3,4-tetrahydro-isoquinoline], the Ki worked out at 6 nM on Rat SERT and 3250 nM at human H3 receptor.

Regarding `COc1ccc(C2CN(C)Cc3cc(OCCCN4CCC(F)CC4)ccc32)c(F)c1` (racemic) [Example 139, 4-(2-Fluoro-4-methoxy-phenyl)-7-[3-(4-fluoro-piperidin-1-yl)-propoxy]-2-methyl-1,2,3,4-tetrahydro-isoquinoline], the Ki on Rat SERT came out at 6 nM. `COc1ccc(C2CN(C)Cc3cc(OCCCN4CCOC[C@@H]4CO)ccc32)cc1` (mixture of isomers) [Example 183A, (4-{3-[4-(4-Methoxy-phenyl)-2-methyl-1,2,3,4-tetrahydro-isoquinolin-7-yloxy)-propyl}-morpholin-3S-yl)-methanol]: the Ki at Rat SERT was determined as 1 nM; on human H3 receptor it was 6 nM. For `COc1ccc(C2CN(C)Cc3cc(OC[C@@H]4CN(C(C)C)CCO4)ccc32)cc1` (mixture of isomers) [Example 255, 7-(4-Isopropyl-morpholin-2S-ylmethoxy)-4-(4-methoxy-phenyl)-2-methyl-1,2,3,4-tetrahydro-isoquinoline] the same measures were 16 nM and 2 nM. As for `COc1ccc(C2CN(C)Cc3cc(OC[C@@H]4CN(C5CC5)CCO4)ccc32)cc1` (mixture of isomers) [Example 260, 7-(4-Cyclopropyl-morpholin-2S-ylmethoxy)-4-(4-methoxy-phenyl)-2-methyl-1,2,3,4-tetrahydro-isoquinoline], the Ki came out at 29 nM on Rat SERT and 3 nM at human H3 receptor. Take `COc1ccc(C2CN([C@H](C)c3ccccc3)Cc3cc(OCCCN4CCOCC4)ccc32)cc1` (single isomer, unassigned) [Example 75, 4-(4-Methoxy-phenyl)-7-(3-morpholin-4-yl-propoxy)-2-(1-phenyl-ethyl)-1,2,3,4-tetrahydro-isoquinoline]: the Ki turned out to be 79 nM on Rat SERT and 14 nM on human H3 receptor. Regarding `COc1ccc(C2CN(C(C)c3ccccc3)Cc3cc(OCCCN4CCOCC4)ccc32)cc1` (single isomer, unassigned) [Example 75A, 4-(4-Methoxy-phenyl)-7-(3-morpholin-4-yl-propoxy)-2-(1-phenyl-ethyl)-1,2,3,4-tetrahydro-isoquinoline], the Ki at Rat SERT is 2000 nM; at human H3 receptor, 7 nM. In the case of `COc1ccc(C2CN(C)Cc3cc(OCCCN4CCC(F)CC4)ccc32)c(F)c1` (single isomer, unassigned) [Example 140, 4-(2-Fluoro-4-methoxy-phenyl)-7-[3-(4-fluoro-piperidin-1-yl)-propoxy]-2-methyl-1,2,3,4-tetrahydro-isoquinoline], at Rat SERT, the Ki worked out at 28 nM. The same measure, in the same setting: the same measure for `COc1ccc(C2CN(C)Cc3cc(OCCCN4CCC(F)CC4)ccc32)c(F)c1` (single isomer, unassigned) [Example 141, 4-(2-Fluoro-4-methoxy-phenyl)-7-[3-(4-fluoro-piperidin-1-yl)-propoxy]-2-methyl-1,2,3,4-tetrahydro-isoquinoline]: 3 nM. For the molecule `COc1ccc(C2CN(C)Cc3cc(OCCCN4CCC(F)CC4)ccc32)cc1F` (single isomer, unassigned) [Example 143, 4-(3-Fluoro-4-methoxy-phenyl)-7-[3-(4-fluoro-piperidin-1-yl)-propoxy]-2-methyl-1,2,3,4-tetrahydro-isoquinoline], the Ki was 18 nM at Rat SERT and 4 nM at human H3 receptor. `COc1ccc(C2CN(C)Cc3cc(OCCCN4CCC(F)CC4)ccc32)cc1F` (single isomer, unassigned) [Example 144, 4-(3-Fluoro-4-methoxy-phenyl)-7-[3-(4-fluoro-piperidin-1-yl)-propoxy]-2-methyl-1,2,3,4-tetrahydro-isoquinoline]: the Ki on Rat SERT was found to be 5 nM; at human H3 receptor it was 6 nM. With `COc1ccc(C2CN(C)Cc3cc(OCCC4CCCN4C)ccc32)cc1` (single isomer, unassigned) [Example 240A, 4-(4-Methoxy-phenyl)-2-methyl-7-[2-(1-methyl-pyrrolidin-2-yl)-ethoxy]-1,2,3,4-tetrahydro-isoquinoline], the Ki at Rat SERT came out at 2 nM; on human H3 receptor, 3 nM. On to `COc1ccc(C2CN(C)Cc3cc(OCCC4CCCN4C)ccc32)cc1` (single isomer, unassigned) [Example 240B, 4-(4-Methoxy-phenyl)-2-methyl-7-[2-(1-methyl-pyrrolidin-2-yl)-ethoxy]-1,2,3,4-tetrahydro-isoquinoline], for which the inhibition constant (Ki) turned out to be 5 nM on Rat SERT and 21 nM on human H3 receptor. As to `COc1ccc(C2CN(C)Cc3cc(OC[C@@H]4CN(C5CC5)CCO4)ccc32)cc1` (single isomer, unassigned) [Example 260B, 7-(4-Cyclopropyl-morpholin-2S-ylmethoxy)-4-(4-methoxy-phenyl)-2-methyl-1,2,3,4-tetrahydro-isoquinoline], the inhibitory constant (Ki) on Rat SERT was found to be 26 nM; on human H3 receptor, 29 nM. For the molecule `COc1ccc(C2CN(C)Cc3cc(OC[C@H]4CN(C5CC5)CCO4)ccc32)cc1` (single isomer, unassigned) [Example 261A, 7-(4-Cyclopropyl-morpholin-2R-ylmethoxy)-4-(4-methoxy-phenyl)-2-methyl-1,2,3,4-tetrahydro-isoquinoline], the inhibitory constant (Ki) at Rat SERT is 32 nM; on human H3 receptor, 73 nM. Consider `COc1ccc(C2CN(C)Cc3cc(OC[C@H]4CN(C5CC5)CCO4)ccc32)cc1` (single isomer, unassigned) [Example 261B, 7-(4-Cyclopropyl-morpholin-2R-ylmethoxy)-4-(4-methoxy-phenyl)-2-methyl-1,2,3,4-tetrahydro-isoquinoline], for which the values for the Ki at Rat SERT and at human H3 receptor were 17 nM and 64 nM, respectively. Turning to `COc1ccc(C2CN(C)Cc3cc(OCCCN=C4N(C)CCCN4C)ccc32)cc1` (stereo not drawn) [Example 15, (1,3-Dimethyl-tetrahydro-pyrimidin-2-ylidene)-{3-[4-(4-methoxy-phenyl)-2-methyl-1,2,3,4-tetrahydro-isoquinolin-7-yloxy]-propyl}-amine], the values for the Ki at Rat SERT and at human H3 receptor were 11 nM and 499 nM, respectively. For the molecule `COc1ccc(C2CN(C)Cc3cc(OCCCN4Cc5ccccc5C4)ccc32)cc1` (stereo not drawn) [Example 16, 7-[3-(1,3-Dihydro-isoindol-2-yl)-propoxy]-4-(4-methoxy-phenyl)-2-methyl-1,2,3,4-tetrahydro-isoquinoline], the Ki on Rat SERT was 6 nM; at human H3 receptor, 25 nM. Take `COc1ccc(C2CN(C)Cc3cc(OCCCN4C=NCCC4)ccc32)cc1` (stereo not drawn) [Example 18, 7-[3-(5,6-Dihydro-4H-pyrimidin-1-yl)-propoxy]-4-(4-methoxy-phenyl)-2-methyl-1,2,3,4-tetrahydro-isoquinoline]: the Ki at Rat SERT stood at 1 nM; at human H3 receptor, 74 nM. `COc1ccc(C2CN(C)Cc3cc(OCCCN(C)c4nc5ccccc5s4)ccc32)cc1` (stereo not drawn) [Example 19, Benzothiazol-2-yl-{3-[4-(4-methoxy-phenyl)-2-methyl-1,2,3,4-tetrahydro-isoquinolin-7-yloxy]-propyl}-methyl-amine]: the Ki at Rat SERT was 8 nM; at human H3 receptor, 2000 nM. The corresponding values for `COc1ccc(C2CN(C)Cc3cc(OCCCN4CCS(=O)(=O)CC4)ccc32)cc1` (stereo not drawn) [Example 27, 7-[3-(1,1-Dioxo-1λ^6-thiomorpholin-4-yl)-propoxy]-4-(4-methoxy-phenyl)-2-methyl-1,2,3,4-tetrahydro-isoquinoline] are 3 nM and 104 nM. Take `COc1ccc(C2CN(C)Cc3cc(OCC4CCN(C(C)C)CC4)ccc32)c(F)c1` (stereo not drawn) [Example 90, 4-(2-Fluoro-4-methoxy-phenyl)-7-(1-isopropyl-piperidin-4-ylmethoxy)-2-methyl-1,2,3,4-tetrahydro-isoquinoline]: the inhibitory constant (Ki) at Rat SERT came to 9 nM.
